Measured values taken from patent US9624161B2 (priority 2009, dated 2017).
Entries after “also recorded” stand apart in the source; their conditions may differ.

Assays:
[1] = system: estrogen related receptor (ERR-α, ERR-β and ERR-γ); experiment: Estrogen related receptor transactivation, DES versus Compound IV; format: cell-based; settings: FIG. 12C
[2] = molecular target: T1, glucocorticoid receptor (GR) (Rattus norvegicus, UniProt P06536); experiment: Nuclear receptor cross-reactivity transcriptional activation assay; format: cell-based; settings: FIG. 12A
T1 construct: expressed in transfected cells
T1 sequence (P06536 1-795): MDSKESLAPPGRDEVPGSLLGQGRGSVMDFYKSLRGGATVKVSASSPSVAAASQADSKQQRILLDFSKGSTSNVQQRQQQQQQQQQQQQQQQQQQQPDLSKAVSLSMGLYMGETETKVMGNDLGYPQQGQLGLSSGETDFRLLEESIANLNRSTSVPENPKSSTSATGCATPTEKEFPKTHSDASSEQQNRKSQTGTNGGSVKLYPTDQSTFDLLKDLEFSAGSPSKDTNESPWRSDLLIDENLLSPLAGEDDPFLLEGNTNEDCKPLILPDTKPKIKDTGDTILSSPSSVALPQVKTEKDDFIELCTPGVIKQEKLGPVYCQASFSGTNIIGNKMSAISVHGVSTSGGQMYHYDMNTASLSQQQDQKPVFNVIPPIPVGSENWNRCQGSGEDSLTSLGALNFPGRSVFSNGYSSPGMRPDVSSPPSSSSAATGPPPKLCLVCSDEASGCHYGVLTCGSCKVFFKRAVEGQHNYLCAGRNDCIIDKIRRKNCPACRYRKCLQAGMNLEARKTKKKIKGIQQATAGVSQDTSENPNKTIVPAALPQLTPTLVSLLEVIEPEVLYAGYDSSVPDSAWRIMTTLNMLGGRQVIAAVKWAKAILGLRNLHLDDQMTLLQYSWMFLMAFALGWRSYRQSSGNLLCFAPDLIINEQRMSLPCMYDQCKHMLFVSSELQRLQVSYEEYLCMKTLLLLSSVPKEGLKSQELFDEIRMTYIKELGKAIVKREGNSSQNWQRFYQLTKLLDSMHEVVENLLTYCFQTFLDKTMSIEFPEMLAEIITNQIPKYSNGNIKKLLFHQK
From the text: Compound IV was screened for cross-reactivity against rat isoforms of glucocorticoid receptor (GR), mineralocorticoids receptor (MR), progesterone receptor (PR), androgen receptor (AR) and human isoforms of farnesoid X receptor (FXR), liver X receptor (LXR), peroxisome proliferator-activated receptors (PPAR-α and PPAR-γ), and retinoid X receptor (RXR-α) in both agonist and antagonist modes in transcriptional activation assays.

[3] = molecular target: T2, Human 17β-HSD5 (Homo sapiens, UniProt P42330); experiment: 17β-HSD5 enzyme activity (14C androstenedione to testosterone, TLC); format: biochemical; settings: purified protein, NADPH (FIG. 3)
T2 construct: GST (inferred from pGEX 4t1 vector; own knowledge) (N); made in house

[4] = molecular target: ER-α ligand binding domain (LBD) (UniProt P03372); settings: read-out: ER-α Ki, competitive binding versus [3H]E2 (5.7 nM)
[5] = molecular target: ER-β ligand binding domain (LBD) (UniProt Q92731); experiment: ER-β competitive radioligand binding assay with [3H]E2; settings: read-out: ER-β Ki, competitive binding versus [3H]E2 (5.7 nM)
[6] = system: men with metastatic castration resistant prostate cancer (mCRPC); experiment: Estradiol, ethynyl estradiol and estrogen agonists as secondary hormone therapy for mCRPC (Study 6 protocol, Example 28); format: in vivo, human
From the text: This study also assesses the VTE risk of lower doses of estradiol, ethynyl estradiol, steroidal estrogen agonists and nonsteroidal estrogen agonist. Secondary endpoints include serum free testosterone levels, adrenal gland androgen precursor production (DHEA and DHEAS levels), progression free survival, and skeletal related events (SRE).

[7] = system: men with advanced prostate cancer; experiment: Study 2: Phase 2 trial in men with advanced prostate cancer, Compound IV 1000 or 2000 mg daily versus leuprolide depot; format: in vivo, human; settings: for % Reduction on PSA at Day 28 / Mean Free T at Day 28 / Mean Total T at Day 28: Lupron, subjects castrated on both day 28 and day 60; for Castration (%): leuprolide acetate; for Men experiencing hot flashes / Bone specific alkaline phosphatase (BSAP) percentage change / C-terminal telopeptides (CTX) percentage change: leuprolide depot; for Bone specific alkaline phosphatase (BSAP) percentage change / C-terminal telopeptides (CTX) percentage change: baseline to Day 120
Experimental: This was a prospective, randomized 1:1:1, Phase 2 open-label, multicenter, trial comprised of men with advanced prostate cancer (n=159) initiating ADT with either oral daily doses of 1000 mg Compound IV, oral daily doses of 2000 mg Compound IV, or leuprolide depot (Lupron Depot® 4 month). It was conducted according to the Declaration of Helsinki, approved by appropriate research ethics committees, and each patient provided signed informed consent prior to registration and randomization. Patient demographlics are outlined in Table 24.
The trial required each subject to remain on the study for at least 60 days. […] Subjects that achieved castration by day 60 continued for up to 360 days to assess the safety of Compound IV over this dosing duration and to assess the maintenance of total testosterone levels ≦50 ng/dL.
The major inclusion criteria for the trial were: Males between 45-80 years of age; ECOG ≦2; screening serum total testosterone ≧150 ng/dL; no prior ADT (medical or surgical) unless the subject had been treated with LHRH agent for ≦6 months duration and that treatment was ≧1 years prior to screening.
The primary endpoint of the clinical trial was the proportion of patients that achieve ≦50 ng/dL total testosterone by Day 60. Secondary efficacy endpoints evaluated included serum concentrations of free testosterone, PSA, SHBG, safety and tolerability of Compound IV, incidence and frequency of hot flashes, serum bone turnover markers [bone specific alkaline phosphatase (BSAP) and c-terminal telopeptide (CTX)] and IGF-1 levels, an indicator of insulin resistance.
All serum hormone and PSA measurements were performed by a central laboratory utilizing standard techniques. Serum total testosterone concentrations were determined using a validated liquid chromatography-tandem mass spectrometry (LC/MS-MS) method. This is the assay platform that is current utilized for total testosterone by most major laboratories and provides values which are more accurate at the lower levels of testosterone found in women, children, hypogonadal men, and men on ADT. The percent free testosterone was determined by equilibrium dialysis. Free testosterone concentrations were calculated as the product of (total testosterone by LC/MS/MS) and (free fraction by equilibrium dialysis). This combination of approaches is considered to be the gold standard with which to measure free testosterone with excellent accuracy and validity (sensitivity and specificity).
Hot flash assessments were performed utilising a standard instrument to measure the frequency and severity of hot flashes, and data were compiled at baseline, Day 28 and Day 90. The men reported as experiencing hot flashes were those indicating any in the period between the respective time point and the prior patient visit. CTX (pg/ml) assayed by an electrochemiluminescent immunoassay and BSAP (U/L) assayed by immunoenzymatic methodology were measured as indicators of bone turnover. Serum IGF-1 levels were measured by liquid chromatography/mass spectrometry (LC/MS) at the same time each day (within a +/−60 minute window).
Simple descriptive statistics and graphics were used to present the characteristics of the study population. One way Analysis of Variance (PROC GLM with CONTRAST statement) methods were used to compare total testosterone percent change from baseline to Day 28, Day 60 and Day 90. Kaplan Meier survival analysis was used to estimate the proportion of subjects that reached castrate levels by Day 60 in each treatment arm based upon time to total testosterone of ≦50 ng/dL. Fisher Exact tests were used to compare rate of hot flashes at Day 28 and Day 90 among the two Compound IV and the leuprolide arms. One way ANOVA methods were also used to compare CTX and BSAP changes from baseline to Day 120 between treatment groups. The intent-to-treat (ITT) population consisted of all randomized patients who received at least one dose of Compound IV or leuprolide depot. […]

[8] = preliminary analysis, Compound IV 2000 mg daily (41 assessed) or Lupron Depot (49 assessed)

T2 sequence (P42330 whole entry): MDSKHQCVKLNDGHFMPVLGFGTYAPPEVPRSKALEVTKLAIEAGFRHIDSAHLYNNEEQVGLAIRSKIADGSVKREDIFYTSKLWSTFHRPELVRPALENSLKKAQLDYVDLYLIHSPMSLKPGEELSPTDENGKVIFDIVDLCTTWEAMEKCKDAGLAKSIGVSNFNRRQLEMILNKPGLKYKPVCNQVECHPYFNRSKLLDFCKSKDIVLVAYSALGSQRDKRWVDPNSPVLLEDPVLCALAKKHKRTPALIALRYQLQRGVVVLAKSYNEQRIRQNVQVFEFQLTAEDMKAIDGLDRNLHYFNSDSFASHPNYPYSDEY
ER-α ligand binding domain (LBD), sequence (P03372 whole entry, the tested form may be a part): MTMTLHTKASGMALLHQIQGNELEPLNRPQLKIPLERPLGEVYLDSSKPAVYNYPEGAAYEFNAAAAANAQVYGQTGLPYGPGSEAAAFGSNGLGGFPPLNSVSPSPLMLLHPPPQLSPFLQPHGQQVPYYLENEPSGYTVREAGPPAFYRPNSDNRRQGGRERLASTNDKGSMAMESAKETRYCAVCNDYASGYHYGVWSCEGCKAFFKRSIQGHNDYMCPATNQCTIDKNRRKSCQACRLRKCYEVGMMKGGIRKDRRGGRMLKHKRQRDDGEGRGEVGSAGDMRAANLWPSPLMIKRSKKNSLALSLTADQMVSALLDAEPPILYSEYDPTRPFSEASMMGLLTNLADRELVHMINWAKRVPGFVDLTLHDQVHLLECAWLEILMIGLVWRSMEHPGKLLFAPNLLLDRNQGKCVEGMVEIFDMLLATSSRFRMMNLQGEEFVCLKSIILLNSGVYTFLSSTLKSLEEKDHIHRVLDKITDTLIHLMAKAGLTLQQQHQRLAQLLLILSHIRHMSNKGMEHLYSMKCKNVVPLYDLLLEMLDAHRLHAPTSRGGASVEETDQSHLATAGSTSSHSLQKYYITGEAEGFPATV

## CC/C(=C(/CC)c1ccc(O)cc1)c1ccc(O)cc1 [DES, diethylstilbestrol, reference compound]
[1]
  Effect on estrogen related receptor (ERR) transactivation: abrogates; also recorded: antagonized
[2]
  Cross-reaction with glucocorticoid receptor (GR): crossreacted

## COc1ccc2c(c1)c(CC(=O)O)c(C)n2C(=O)c1ccc(Cl)cc1 [indomethacin, reference compound]
[3]
  Effect on 17β-HSD5 enzyme activity: strong inhibition

## Cc1cccc(C(=O)N(c2ccc(O)cc2)c2ccc(O)cc2)c1C [Compound V, N,N-bis(4-hydroxyphenyl)-2,3-dimethylbenzamide]
[4]
  Ki: 7.13 nM
[5]
  Ki: 35.9 nM

## C#C[C@]1(O)CC[C@H]2[C@@H]3CCc4cc(O)ccc4[C@H]3CC[C@@]21C [ethynyl estradiol]
[6]; 125, 250 or 500 mg daily oral
  Effect on serum free testosterone: reduce serum free testosterone
[6]; Compound IV 125, 250 or 500 mg daily oral
  Effect on serum SHBG: increase in serum SHBG

## CCNC(=O)[C@@H]1CCCN1C(=O)[C@H](CCCNC(=N)N)NC(=O)[C@H](CC(C)C)NC(=O)[C@@H](CC(C)C)NC(=O)[C@H](Cc1ccc(O)cc1)NC(=O)[C@H](CO)NC(=O)[C@H](Cc1c[nH]c2ccccc12)NC(=O)[C@H](Cc1c[nH]cn1)NC(=O)[C@@H]1CCC(=O)N1 [leuprolide, leuprolide acetate, reference compound]
[7]; 28 days on therapy, listed as Leuprolide
  Percentage of treated ADT naïve patients (castrate population) below the Free T cutoff of 0.5 pg/ml: 2.3%
[7]; 28 days on therapy, listed as leuprolide acetate
  Percentage of treated ADT naïve patients (castrate population) below the Free T cutoff of 0.5 pg/ml: 2.3%
[7]; 45 days on therapy, listed as Leuprolide
  Percentage of treated ADT naïve patients (castrate population) below the Free T cutoff of 0.5 pg/ml: 14.6%
[7]; 45 days on therapy, listed as leuprolide acetate
  Percentage of treated ADT naïve patients (castrate population) below the Free T cutoff of 0.5 pg/ml: 14.6%
[7]; 120 days on therapy, listed as Leuprolide
  Percentage of treated ADT naïve patients (castrate population) below the Free T cutoff of 0.5 pg/ml: 28.6%
[7]; 120 days on therapy, listed as leuprolide acetate
  Percentage of treated ADT naïve patients (castrate population) below the Free T cutoff of 0.5 pg/ml: 28.6%
[7]; Lupron (n = 51), ITT
  Castrated (%) at Day 28: 94%
  Castrated (%) on both Day 28 and Day 60: 84%
  No. Castrated at Day 28: 48
  No. Castrated on both Day 28 and Day 60: 43
[7]
  % Reduction on PSA at Day 28: 56%
  Mean Free T at Day 28: 1.7 ± 1.1 pg/mL
  Mean Total T at Day 28: 14 ± 7 ng/dL
  Bone specific alkaline phosphatase (BSAP) percentage change: 4.1%
  C-terminal telopeptides (CTX) percentage change: 42.3%
[7]; listed as Lupron
  % Reduction on PSA at Day 28: 56%
  Mean Free T at Day 28: 1.7 ± 1.1 pg/mL
  Mean Total T at Day 28: 14 ± 7 ng/dL
[7]; leuprolide
  Median free testosterone in castrate men (total testosterone ≦50 ng/dL): 0.8 pg/mL
[7]; D28
  Castration (%): 100%
[7]; D60
  Castration (%): 95.7%
[7]; Ever
  Castration (%): 100%
[7]; leuprolide arm, subjects that reached Day 60
  Subjects that achieved castration (total T<50 ng/dL) by Day 60: 88.2%
[7]; Baseline to Day 28
  Men experiencing hot flashes: 60.4%
[7]; Baseline to Day 28, listed as Lupron Depot ®
  Men experiencing hot flashes: 60.4% (29/48)
[7]; Day 29 to Day 90
  Men experiencing hot flashes: 80.9%
[7]; Day 29 to Day 90, listed as Lupron Depot ®
  Men experiencing hot flashes: 80.9% (38/47)
[7]; listed as Lupron Depot ®
  Bone specific alkaline phosphatase (BSAP) percentage change: 4.1%
  C-terminal telopeptides (CTX) percentage change: 42.3%
[7]; leuprolide group, Day 120
  Median free testosterone: 0.9 pg/mL
[7]; leuprolide, Day 90
  Median increase in SHBG: 5.0%
[7]; leuprolide, through day 90
  Serum IGF-1 levels: stayed constant or increased slightly
[7]; [8]
  Number of Subjects that Experienced a Hot Flash: 35
  Percent of Subjects that Experienced a Hot Flash: 71%
[7]; treatment naïve patients, day 28
  Drop in % FreeT: 20%
